pIC50: −log10 of the molar value. Each block holds one compound with its values, some of them ahead of it.
Tests used:
Rattus norvegicus = test: Anti-uterotrophic activity in rat at 10 mg/kg, sc administered once daily for 3 days relative to control; assay type: functional; details: time 3 day
MCF7 [1] = test: Antiproliferative activity against human MCF7 cells assessed as reduction in cell proliferation; assay type: functional, cell-based
MCF7 [2] = test: Antiproliferative activity against human MCF7 cells; assay type: functional, cell-based
[3] = Inhibition of ESR1 Y537S mutant LBD (unknown origin) transfected in SK-BR-3 cells measured after 22 hrs by luciferase assay; assay type: cell-based; details: Homo sapiens, SK-BR-3, 22 h
[4] = Downregulation of ER in human MCF7 cells assessed as […] measured after 2 days EIA assay; assay type: functional, cell-based; details: MCF7, 48 h
Estrogen receptor = biological target: T1, Estrogen receptor (Homo sapiens, UniProt P03372); test: Inhibition of ER (unknown origin) by luciferase reporter assay
T1 sequence (P03372 whole entry): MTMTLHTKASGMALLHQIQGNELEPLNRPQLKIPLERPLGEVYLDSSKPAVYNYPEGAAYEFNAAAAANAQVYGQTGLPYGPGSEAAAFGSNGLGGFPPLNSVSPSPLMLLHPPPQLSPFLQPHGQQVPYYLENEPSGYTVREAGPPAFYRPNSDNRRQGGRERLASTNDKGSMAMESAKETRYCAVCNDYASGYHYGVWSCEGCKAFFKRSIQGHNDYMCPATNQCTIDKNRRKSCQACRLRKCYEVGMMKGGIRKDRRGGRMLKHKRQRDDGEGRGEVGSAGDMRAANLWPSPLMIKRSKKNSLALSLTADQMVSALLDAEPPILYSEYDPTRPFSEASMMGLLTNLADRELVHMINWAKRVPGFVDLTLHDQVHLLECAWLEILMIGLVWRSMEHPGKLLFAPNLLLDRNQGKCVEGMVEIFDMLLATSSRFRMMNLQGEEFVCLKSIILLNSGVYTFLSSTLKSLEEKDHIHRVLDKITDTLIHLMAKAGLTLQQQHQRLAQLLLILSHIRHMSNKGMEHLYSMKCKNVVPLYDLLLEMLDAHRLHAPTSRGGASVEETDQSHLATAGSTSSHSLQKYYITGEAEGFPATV

Structure (SMILES): CCCCN(C)C(=O)CCCCCCCCCC[C@@H]1Cc2cc(O)ccc2C2CC[C@@]3(C)C(CC[C@@H]3O)C21 (some centres not stated)
Activity (Rattus norvegicus): 105%

Structure (SMILES): CCCCNC(=O)CCCCCCCCCC[C@@H]1Cc2cc(O)ccc2C2CC[C@@]3(C)C(CC[C@@H]3O)C21 (some centres not stated)
Activity (Rattus norvegicus): 100%

pIC50 (MCF7 [1]): 8.38
Structure (SMILES): CCNCCc1ccc(CN(CC)c2cc(OC)ccc2[C@@H]2CCc3cc(O)ccc3C2)cc1 [ELACESTRANT]

pIC50 (MCF7 [2]): 8.04 | pIC50 [3]: 8.10
Structure (SMILES): CC1=C(c2ccc(O)cc2)[C@H](c2ccc(OCCN3CC[C@@H](C)C3)cc2)Oc2cc(O)ccc21

Structure (SMILES): C[C@]12CCC3c4ccc(O)cc4C[C@@H](CCCCCCCC[C@H](CCCC(F)(F)C(F)(F)C(F)(F)C(F)(F)F)C(=O)O)C3C1CCC2=O (some centres not stated)
pIC50 [4]: 7.62 | pIC50 (Estrogen receptor): 7.30

Structure (SMILES): C[C@]12C[C@H](c3ccc(OCCCCCS(=O)(=O)CCCC(F)(F)C(F)(F)F)cc3)C3c4ccc(O)cc4CCC3C1CC[C@@H]2O (some centres not stated)
pIC50 (MCF7 [2]): 9.89

Structure (SMILES): C[C@]12CC[C@@H]3c4ccc(O)cc4C[C@@H](CCCCCCCCC[S+]([O-])CCCC(F)(F)C(F)(F)F)[C@H]3[C@@H]1CC[C@@H]2O (some centres not stated) [FULVESTRANT]
pIC50 (MCF7 [2]): 9.46 | pIC50 [3]: 7.66

Structure (SMILES): CN(CCCCC[C@@H]1Cc2cc(O)ccc2C2C1C1CC[C@H](O)[C@@]1(C)C[C@@H]2F)CCCSCCCC(F)(F)C(F)(F)F (some centres not stated)
pIC50 (MCF7 [2]): 8.62

Structure (SMILES): CN(CCCCCCC(F)(F)C(F)(F)C(F)(F)C(F)(F)F)CCCCC[C@@H]1Cc2cc(O)ccc2C2C1C1CC[C@H](O)[C@@]1(C)C[C@@H]2F (some centres not stated)
pIC50 (MCF7 [2]): 8.72

Reference: ChEMBL document CHEMBL5230133, “Selective Estrogen Receptor Degraders (SERDs): A Promising Strategy for Estrogen Receptor Positive Endocrine-Resistant Breast Cancer” (J Med Chem, 2020)
